{"source": "paper PMC8034185", "about": "“The rumen eukaryotome is a source of novel antimicrobial peptides with therapeutic potential” (BMC Microbiology, 2021)", "assay_in_all_cases": "microbe, parasite or virus in culture", "key": {"A. baumannii DSMZ 30007": {"system": "A. baumannii DSMZ 30007", "assay_type": "cell-based, Acinetobacter baumannii", "conditions": "modified broth microdilution, cation-adjusted Mueller Hinton broth, inoculum 5 × 10^5 CFU/mL, 18 h, quadruplicate; highest concentration tested 512 μg/mL", "procedure": "(§1) MICs against a range of clinically important Gram-positive and Gram-negative bacteria strains including methicillin-sensitive Staphylococcus aureus (MSSA) RN4220 epidemic methicillin-resistant S. aureus-15 (EMRSA-15), methicillin-resistant S. aureus USA300 (MRSA USA300), Bacillus cereus, Enterococcus faecalis JH2–2, Escherichia coli K12, Salmonella enterica serovar Typhimurium SL1344, P. aeruginosa PAO1, and hospital isolates of Acinetobacter baummannii were determined in quadruplicate by a modified microdilution broth method [64] with a final bacterial inoculum concentration of 5 × 10^5 CFU/mL utilised as the test organisms. Cation-adjusted Mueller Hinton (MH) broth was innoclated overnight with a single colony of the tested microorganisms, subsequently grown for 16–24 h with shaking at 225 rpm, and further diluted in the same broth to a final concentration of 5 × 10^5 CFU/mL. The bacterial suspension was added to sterile U-bottomed 96-well plates, and the peptides and control antibiotics to be tested were dissolved in sterile distilled water and serially diluted in the wells. The MICs were recorded as the lowest peptide concentration that inhibited growth after incubation for 18 h [65]."}, "P. aeruginosa H174": {"system": "P. aeruginosa H174", "assay_type": "cell-based, Pseudomonas aeruginosa", "conditions": "modified broth microdilution, cation-adjusted Mueller Hinton broth, inoculum 5 × 10^5 CFU/mL, 18 h, quadruplicate; highest concentration tested 512 μg/mL", "procedure": "as §1"}, "A. baumannii S27379 Sen": {"system": "A. baumannii S27379 Sen", "assay_type": "cell-based, Acinetobacter baumannii", "conditions": "sensitive hospital isolate; modified broth microdilution, cation-adjusted Mueller Hinton broth, inoculum 5 × 10^5 CFU/mL, 18 h, quadruplicate; highest concentration tested 512 μg/mL", "procedure": "as §1"}, "Sal. Tyhimurium (SL1344)": {"system": "Sal. Tyhimurium (SL1344)", "assay_type": "cell-based, Salmonella enterica serovar Typhimurium", "conditions": "modified broth microdilution, cation-adjusted Mueller Hinton broth, inoculum 5 × 10^5 CFU/mL, 18 h, quadruplicate; highest concentration tested 512 μg/mL", "procedure": "as §1"}, "A. baumannii IMI/MER-R": {"system": "A. baumannii IMI/MER-R", "assay_type": "cell-based, Acinetobacter baumannii", "conditions": "imipenem/meropenem resistant; modified broth microdilution, cation-adjusted Mueller Hinton broth, inoculum 5 × 10^5 CFU/mL, 18 h, quadruplicate; highest concentration tested 512 μg/mL", "procedure": "as §1"}, "P. aeruginosa PAO1": {"system": "P. aeruginosa PAO1", "assay_type": "cell-based, Pseudomonas aeruginosa", "conditions": "modified broth microdilution, cation-adjusted Mueller Hinton broth, inoculum 5 × 10^5 CFU/mL, 18 h, quadruplicate; highest concentration tested 512 μg/mL", "procedure": "as §1"}, "E. coli K12": {"system": "E. coli K12", "assay_type": "cell-based, Escherichia coli", "conditions": "modified broth microdilution, cation-adjusted Mueller Hinton broth, inoculum 5 × 10^5 CFU/mL, 18 h, quadruplicate; highest concentration tested 512 μg/mL", "procedure": "as §1"}, "[1]": {"system": "A. baumannii S15785 OXA-23/0XA-50", "assay_type": "cell-based, Acinetobacter baumannii", "conditions": "modified broth microdilution, cation-adjusted Mueller Hinton broth, inoculum 5 × 10^5 CFU/mL, 18 h, quadruplicate; highest concentration tested 512 μg/mL", "procedure": "as §1"}, "B. cereus": {"system": "B. cereus", "assay_type": "cell-based, Bacillus cereus", "conditions": "modified broth microdilution, cation-adjusted Mueller Hinton broth, inoculum 5 × 10^5 CFU/mL, 18 h, quadruplicate; highest concentration tested 512 μg/mL", "procedure": "as §1"}, "S. aureus ATCC 33591": {"system": "S. aureus ATCC 33591", "assay_type": "cell-based, Staphylococcus aureus", "conditions": "modified broth microdilution, cation-adjusted Mueller Hinton broth, inoculum 5 × 10^5 CFU/mL, 18 h, quadruplicate; highest concentration tested 512 μg/mL", "procedure": "as §1"}, "S. aureus MSSA (RN4220)": {"system": "S. aureus MSSA (RN4220)", "assay_type": "cell-based, Staphylococcus aureus", "conditions": "modified broth microdilution, cation-adjusted Mueller Hinton broth, inoculum 5 × 10^5 CFU/mL, 18 h, quadruplicate; highest concentration tested 512 μg/mL", "procedure": "as §1"}, "S. aureus EMRSA-15": {"system": "S. aureus EMRSA-15", "assay_type": "cell-based, Staphylococcus aureus", "conditions": "modified broth microdilution, cation-adjusted Mueller Hinton broth, inoculum 5 × 10^5 CFU/mL, 18 h, quadruplicate; highest concentration tested 512 μg/mL", "procedure": "as §1"}, "S. aureus USA300": {"system": "S. aureus USA300", "assay_type": "cell-based, Staphylococcus aureus", "conditions": "modified broth microdilution, cation-adjusted Mueller Hinton broth, inoculum 5 × 10^5 CFU/mL, 18 h, quadruplicate; highest concentration tested 512 μg/mL", "procedure": "as §1"}, "Ent. faecalis (JH2–2)": {"system": "Ent. faecalis (JH2–2)", "assay_type": "cell-based, Enterococcus faecalis", "conditions": "modified broth microdilution, cation-adjusted Mueller Hinton broth, inoculum 5 × 10^5 CFU/mL, 18 h, quadruplicate; highest concentration tested 512 μg/mL", "procedure": "as §1"}}, "note": "Bridge positions count the residues as written; N and C are the ends. Square brackets hold non-standard residues; d marks the D form. Ends that are not written are not given here. Peptide text beside a SMILES is read from it. * marks the point of attachment. X1 = CC[C@H](C)CCCCC(=O)*; Dab = NCC[C@H](N)C(=O)O"}
{"compound": "CC[C@H](C)CCCCC(=O)N[C@@H](CCN)C(=O)N[C@H](C(=O)N[C@@H](CCN)C(=O)N[C@H]1CCNC(=O)[C@H]([C@@H](C)O)NC(=O)[C@H](CCN)NC(=O)[C@H](CCN)NC(=O)[C@H](CC(C)C)NC(=O)[C@@H](Cc2ccccc2)NC(=O)[C@H](CCN)NC1=O)[C@@H](C)O", "note": "[Polymyxin B] (X1-[Dab]T[Dab][Dab][Dab][dF]L[Dab][Dab]T; lactam 4-C (inferred); N-terminus assumed)", "values": [{"measurement": "Minimum Inhibitory Concentration, A. baumannii DSMZ 30007", "setting": "A. baumannii DSMZ 30007", "result": 1, "unit": "µg/mL"}, {"measurement": "Minimum Inhibitory Concentration, P. aeruginosa H174", "setting": "P. aeruginosa H174", "result": 1, "unit": "µg/mL"}, {"measurement": "Minimum Inhibitory Concentration, A. baumannii S27379 Sen", "setting": "A. baumannii S27379 Sen", "result": 1, "unit": "µg/mL"}, {"measurement": "Minimum Inhibitory Concentration, Sal. Tyhimurium", "setting": "Sal. Tyhimurium (SL1344)", "result": 1, "unit": "µg/mL"}, {"measurement": "Minimum Inhibitory Concentration, A. baumannii IMI/MER-R", "setting": "A. baumannii IMI/MER-R", "result": 1, "unit": "µg/mL"}, {"measurement": "Minimum Inhibitory Concentration, P. aeruginosa PAO1", "setting": "P. aeruginosa PAO1", "result": 2, "unit": "µg/mL"}, {"measurement": "Minimum Inhibitory Concentration, E. coli K12", "setting": "E. coli K12", "result": 0.5, "unit": "µg/mL"}, {"measurement": "Minimum Inhibitory Concentration, A. baumannii S15785 OXA-23/0XA-50", "setting": "[1]", "result": 0.5, "unit": "µg/mL"}]}
{"compound": "KGLTVKFKVKN [Lub_376]", "values": [{"measurement": "Minimum Inhibitory Concentration, A. baumannii DSMZ 30007", "setting": "A. baumannii DSMZ 30007", "result": "> 512", "unit": "µg/mL"}, {"measurement": "Minimum Inhibitory Concentration, P. aeruginosa H174", "setting": "P. aeruginosa H174", "result": "> 512", "unit": "µg/mL"}, {"measurement": "Minimum Inhibitory Concentration, B. cereus", "setting": "B. cereus", "result": "> 512", "unit": "µg/mL"}, {"measurement": "Minimum Inhibitory Concentration, S. aureus ATCC 33591", "setting": "S. aureus ATCC 33591", "result": "> 512", "unit": "µg/mL"}, {"measurement": "Minimum Inhibitory Concentration, A. baumannii S27379 Sen", "setting": "A. baumannii S27379 Sen", "result": "> 512", "unit": "µg/mL"}, {"measurement": "Minimum Inhibitory Concentration, S. aureus MSSA", "setting": "S. aureus MSSA (RN4220)", "result": "> 512", "unit": "µg/mL"}, {"measurement": "Minimum Inhibitory Concentration, S. aureus EMRSA-15", "setting": "S. aureus EMRSA-15", "result": "> 512", "unit": "µg/mL"}, {"measurement": "Minimum Inhibitory Concentration, Sal. Tyhimurium", "setting": "Sal. Tyhimurium (SL1344)", "result": "> 512", "unit": "µg/mL"}, {"measurement": "Minimum Inhibitory Concentration, S. aureus USA300", "setting": "S. aureus USA300", "result": "> 512", "unit": "µg/mL"}, {"measurement": "Minimum Inhibitory Concentration, A. baumannii IMI/MER-R", "setting": "A. baumannii IMI/MER-R", "result": "> 512", "unit": "µg/mL"}, {"measurement": "Minimum Inhibitory Concentration, Ent. faecalis", "setting": "Ent. faecalis (JH2–2)", "result": "> 512", "unit": "µg/mL"}, {"measurement": "Minimum Inhibitory Concentration, P. aeruginosa PAO1", "setting": "P. aeruginosa PAO1", "result": "> 512", "unit": "µg/mL"}, {"measurement": "Minimum Inhibitory Concentration, E. coli K12", "setting": "E. coli K12", "result": "> 512", "unit": "µg/mL"}, {"measurement": "Minimum Inhibitory Concentration, A. baumannii S15785 OXA-23/0XA-50", "setting": "[1]", "result": "> 512", "unit": "µg/mL"}]}
